In patent US8426422B2, “Apoptosis-inducing agents for the treatment of cancer and immune and autoimmune diseases” (Abbvie Inc., priority 2009, dated 2013):

Target: GST-Bcl-2 (Homo sapiens, UniProt P10415)
Assay: Time Resolved-Fluorescence Resonance Energy Transfer (TR-FRET) Bcl-2 binding assay
Conditions: GST-Bcl-2 1 nM, F-Bak peptide probe 100 nM, Tb-anti-GST 1 nM; 3 hours at room temperature; Ki by Wang's equation
Description: Determination of the utility of compounds having Formula (I) as binders to and inhibitors of anti-apoptotic Bcl-2 proteins was performed using the Time Resolved-Fluorescence Resonance Energy Transfer (TR-FRET) Assay. Tb-anti-GST antibody was purchased from Invitrogen (Catalog No. PV4216).
Representative compounds were serially diluted in dimethyl sulfoxide (DMSO) starting at 50 μM (2x starting concentration; 10% DMSO) and 10 μL were transferred into a 384-well plate. The samples are then mixed on a shaker for 1 minute and incubated for an additional 3 hours at room temperature. For each assay, the probe/antibody and protein/probe/antibody were included on each assay plate as negative and positive controls, respectively. Fluorescence was measured on the ENVISION plate reader (Perkin Elmer) using a 340/35 nm excitation filter and 520/525 (F-Bak peptide) and 495/510 nm (Tb-labeled […] antibody) emission filters. Inhibition constants (Ki) are shown in TABLE 2 below and were determined using Wang's equation (Wang Z.-X. An Exact Mathematical Expression For Describing Competitive Binding Of Two Different Ligands To A Protein Molecule. FEBS Lett. 1995, 360:111-4).
The inhibition constant (Ki) is the dissociation constant of an enzyme-inhibitor complex or a protein/small molecule complex, wherein the small molecule is inhibiting binding of one protein to another protein. So a large Ki value indicates a low binding affinity and a small Ki value indicates a high binding affinity.
The compounds are therefore expected to have utility in treatment of diseases during which anti-apoptotic Bcl-2 protein is expressed.

Sequence of GST-Bcl-2 (P10415 whole entry): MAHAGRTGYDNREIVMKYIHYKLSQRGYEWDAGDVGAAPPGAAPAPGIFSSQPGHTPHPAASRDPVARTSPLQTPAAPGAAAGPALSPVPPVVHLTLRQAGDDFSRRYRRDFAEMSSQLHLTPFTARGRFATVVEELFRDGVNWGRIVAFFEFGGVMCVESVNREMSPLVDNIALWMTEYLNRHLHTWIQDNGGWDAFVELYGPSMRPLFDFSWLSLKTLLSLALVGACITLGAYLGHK

| Structure (SMILES) | Ki |
| --- | --- |
| O=C(NS(=O)(=O)c1ccc([N+](=O)[O-])cc1)c1ccc(N2CCN(Cc3ccccc3-c3ccc(Cl)cc3)CC2)cc1 [Example 16, 4-{4-[(4′-chloro-1,1′-biphenyl-2-yl)methyl]piperazin-1-yl}-N-[(4-nitrophenyl)sulfonyl]benzamide] | 273 nM |
| CC1(C)CCC(CN2CCN(c3ccc(C(=O)NS(=O)(=O)c4cccc(Cl)c4)c(Oc4ccc5[nH]ccc5c4)c3)CC2)=C(c2ccc(Cl)cc2)C1 [Example 34, 4-(4-{[2-(4-chlorophenyl)-4,4-dimethylcyclohex-1-en-1-yl]methyl}piperazin-1-yl)-N-[(3-chlorophenyl)sulfonyl]-2-(1H-indol-5-yloxy)benzamide] | 5.14 nM |
| O=C(NS(=O)(=O)c1cccc(F)c1)c1ccc(N2CCN(Cc3ccccc3-c3ccc(Cl)cc3)CC2)cc1Oc1ccccc1 [Example 23, 4-{4-[(4′-chloro-1,1′-biphenyl-2-yl)methyl]piperazin-1-yl}-N-[(3-fluorophenyl)sulfonyl]-2-phenoxybenzamide] | 27.3 nM |
| CC1(C)CCC(CN2CCN(c3ccc(C(=O)NS(=O)(=O)c4ccccc4)c(Oc4ccc5[nH]ccc5c4)c3)CC2)=C(c2ccc(Cl)cc2)C1 [Example 31, 4-(4-{[2-(4-chlorophenyl)-4,4-dimethylcyclohex-1-en-1-yl]methyl}piperazin-1-yl)-2-(1H-indol-5-yloxy)-N-(phenylsulfonyl)benzamide] | 21.6 nM |
| O=C(NS(=O)(=O)c1cccc([N+](=O)[O-])c1)c1ccc(N2CCN(Cc3ccccc3-c3ccc(Cl)cc3)CC2)cc1Sc1ccccc1 [Example 13, 4-{4-[(4′-chloro-1,1′-biphenyl-2-yl)methyl]piperazin-1-yl}-N-[(3-nitrophenyl)sulfonyl]-2-(phenylthio)benzamide] | 72.9 nM |
| CN(C)CCOc1cccc(-c2ccc(Cl)cc2)c1CN1CCN(c2ccc(C(=O)NS(=O)(=O)c3ccccc3)c(Oc3cccc4[nH]ccc34)c2)CC1 [Example 29, 4-[4-({4′-chloro-3-[2-(dimethylamino)ethoxy]-1,1′-biphenyl-2-yl}methyl)piperazin-1-yl]-2-(1H-indol-4-yloxy)-N-(phenylsulfonyl)benzamide] | 2.27 nM |
| CC1(C)CCC(CN2CCN(c3ccc(C(=O)NS(=O)(=O)c4cccc(F)c4)c(Oc4ccc5[nH]ccc5c4)c3)CC2)=C(c2ccc(Cl)cc2)C1 [Example 35, 4-(4-{[2-(4-chlorophenyl)-4,4-dimethylcyclohex-1-en-1-yl]methyl}piperazin-1-yl)-N-[(3-fluorophenyl)sulfonyl]-2-(1H-indol-5-yloxy)benzamide] | 8.84 nM |
| CC1(C)CCC(CN2CCN(c3ccc(C(=O)NS(=O)(=O)c4cccc5cnccc45)c(Oc4ccc5[nH]ccc5c4)c3)CC2)=C(c2ccc(Cl)cc2)C1 [Example 37, 4-(4-{[2-(4-chlorophenyl)-4,4-dimethylcyclohex-1-en-1-yl]methyl}piperazin-1-yl)-2-(1H-indol-5-yloxy)-N-(isoquinolin-5-ylsulfonyl)benzamide] | 10.6 nM |
| O=C(NS(=O)(=O)c1ccc(Cl)c([N+](=O)[O-])c1)c1ccc(N2CCN(Cc3ccccc3-c3ccc(Cl)cc3)CC2)cc1Oc1ccccc1 [Example 27, 4-{4-[(4′-chloro-1,1′-biphenyl-2-yl)methyl]piperazin-1-yl}-N-[(4-chloro-3-nitrophenyl)sulfonyl]-2-phenoxybenzamide] | 4.16 nM |
| O=C(NS(=O)(=O)c1cccc([N+](=O)[O-])c1)c1ccc(N2CCN(Cc3ccccc3-c3ccc(Cl)cc3)CC2)cc1Cc1ccccc1 [Example 15, 2-benzyl-4-{4-[(4′-chloro-1,1′-biphenyl-2-yl)methyl]piperazin-1-yl}-N-[(3-nitrophenyl)sulfonyl]benzamide] | 48 nM |
| O=C(NS(=O)(=O)c1cccc([N+](=O)[O-])c1)c1ccc(N2CCN(Cc3ccccc3-c3ccc(Cl)cc3)CC2)cc1S(=O)(=O)c1ccccc1 [Example 26, 4-{4-[(4′-chloro-1,1′-biphenyl-2-yl)methyl]piperazin-1-yl}-N-[(3-nitrophenyl)sulfonyl]-2-(phenylsulfonyl)benzamide] | 627 nM |
| O=C(NS(=O)(=O)c1ccccc1)c1ccc(N2CCN(Cc3ccccc3-c3ccc(Cl)cc3)CC2)cc1 [Example 6, 4-{4-[(4′-chloro-1,1′-biphenyl-2-yl)methyl]piperazin-1-yl}-N-(phenylsulfonyl)benzamide] | 212 nM |
| O=C(NS(=O)(=O)c1ccc(Br)cc1)c1ccc(N2CCN(Cc3ccccc3-c3ccc(Cl)cc3)CC2)cc1 [Example 11, N-[(4-bromophenyl)sulfonyl]-4-{4-[(4′-chloro-1,1′-biphenyl-2-yl)methyl]piperazin-1-yl}benzamide] | 208 nM |
| O=C(NS(=O)(=O)c1cccc([N+](=O)[O-])c1)c1ccc(N2CCN(Cc3ccccc3-c3ccc(Cl)cc3)CC2)cc1NCc1ccccc1 [Example 14, 2-(benzylamino)-4-{4-[(4′-chloro-1,1′-biphenyl-2-yl)methyl]piperazin-1-yl}-N-[(3-nitrophenyl)sulfonyl]benzamide] | 749 nM |
| O=C(NS(=O)(=O)c1cccc([N+](=O)[O-])c1)c1ccc(N2CCN(Cc3ccccc3-c3ccc(Cl)cc3)CC2)cc1 [Example 5, 4-{4-[(4′-chloro-1,1′-biphenyl-2-yl)methyl]piperazin-1-yl}-N-[(3-nitrophenyl)sulfonyl]benzamide] | 185 nM |
| O=C(NS(=O)(=O)c1ccc(F)cc1)c1ccc(N2CCN(Cc3ccccc3-c3ccc(Cl)cc3)CC2)cc1 [Example 19, 4-{4-[(4′-chloro-1,1′-biphenyl-2-yl)methyl]piperazin-1-yl}-N-[(4-fluorophenyl)sulfonyl]benzamide] | 403 nM |
| O=C(NS(=O)(=O)c1cccc([N+](=O)[O-])c1)c1ccc(N2CCN(Cc3ccccc3-c3ccc(Cl)cc3)CC2)cc1[S+]([O-])c1ccccc1 (stereo not shown) [Example 21, 4-{4-[(4′-chloro-1,1′-biphenyl-2-yl)methyl]piperazin-1-yl}-N-[(3-nitrophenyl)sulfonyl]-2-(phenylsulfinyl)benzamide] | 87.3 nM |
| O=C(NS(=O)(=O)c1cccc(F)c1)c1ccc(N2CCN(Cc3ccccc3-c3ccc(Cl)cc3)CC2)cc1 [Example 20, 4-{4-[(4′-chloro-1,1′-biphenyl-2-yl)methyl]piperazin-1-yl}-N-[(3-fluorophenyl)sulfonyl]benzamide] | 280 nM |
| O=C(NS(=O)(=O)c1cccc([N+](=O)[O-])c1)c1ccc(N2CCN(Cc3ccccc3-c3ccc(Cl)cc3)CC2)cc1OCCc1ccccc1 [Example 8, 4-{4-[(4′-chloro-1,1′-biphenyl-2-yl)methyl]piperazin-1-yl}-N-[(3-nitrophenyl)sulfonyl]-2-(2-phenylethoxy)benzamide] | 975 nM |
| CN(C)CCOc1cccc(-c2ccc(Cl)cc2)c1CN1CCN(c2ccc(C(=O)NS(=O)(=O)c3cccc([N+](=O)[O-])c3)c(Oc3cccc4[nH]ccc34)c2)CC1 [Example 28, 4-[4-({4′-chloro-3-[2-(dimethylamino)ethoxy]-1,1′-biphenyl-2-yl}methyl)piperazin-1-yl]-2-(1H-indol-4-yloxy)-N-[(3-nitrophenyl)sulfonyl]benzamide] | 0.125 nM |
| O=C(NS(=O)(=O)c1cccc([N+](=O)[O-])c1)c1ccc(N2CCN(Cc3ccccc3-c3ccc(Cl)cc3)CC2)cc1CCc1ccccc1 [Example 18, 4-{4-[(4′-chloro-1,1′-biphenyl-2-yl)methyl]piperazin-1-yl}-N-[(3-nitrophenyl)sulfonyl]-2-(2-phenylethyl)benzamide] | 746 nM |
| O=C(NS(=O)(=O)c1ccc(F)cc1)c1ccc(N2CCN(Cc3ccccc3-c3ccc(Cl)cc3)CC2)cc1Oc1ccccc1 [Example 24, 4-{4-[(4′-chloro-1,1′-biphenyl-2-yl)methyl]piperazin-1-yl}-N-[(4-fluorophenyl)sulfonyl]-2-phenoxybenzamide] | 10.3 nM |
| CC1(C)CCC(CN2CCN(c3ccc(C(=O)NS(=O)(=O)c4ccc5ccccc5c4)c(Oc4ccc5[nH]ccc5c4)c3)CC2)=C(c2ccc(Cl)cc2)C1 [Example 36, 4-(4-{[2-(4-chlorophenyl)-4,4-dimethylcyclohex-1-en-1-yl]methyl}piperazin-1-yl)-2-(1H-indol-5-yloxy)-N-(2-naphthylsulfonyl)benzamide] | 31.7 nM |
| O=C(NS(=O)(=O)c1ccc([N+](=O)[O-])cc1)c1ccc(N2CCN(Cc3ccccc3-c3ccc(Cl)cc3)CC2)cc1Oc1ccccc1 [Example 22, 4-{4-[(4′-chloro-1,1′-biphenyl-2-yl)methyl]piperazin-1-yl}-N-[(4-nitrophenyl)sulfonyl]-2-phenoxybenzamide] | 17.3 nM |
| CC1(C)CCC(CN2CCN(c3ccc(C(=O)NS(=O)(=O)c4ccc(Cl)c([N+](=O)[O-])c4)c(Oc4cccc5[nH]ncc45)c3)CC2)=C(c2ccc(Cl)cc2)C1 [Example 38, N-[(4-chloro-3-nitrophenyl)sulfonyl]-4-(4-{[2-(4-chlorophenyl)-4,4-dimethylcyclohex-1-en-1-yl]methyl}piperazin-1-yl)-2-(1H-indazol-4-yloxy)benzamide] | 0.174 nM |
